Results reported in patent US11072619B2, “Pyrazole[1,5-a] pyrimidine derivatives as kinase JAK inhibitors” (CELON PHARMA S.A., priority 2017, dated 2021).

Assays:
[1] = test system: TF-1 cells; test: TF-1 cells viability in vitro in the presence of IL-4 (JAK1/JAK3 activation); format: cell-based; settings: Homo sapiens, TF-1; 20 ng/mL IL-4, 72 hours, ATPlite; read-out: JAK1,3 IL4 (EC50, inhibition of viability of TF-1 cells)
Experimental: (§1) Assay for TF-1 Cells Viability In Vitro
(§2) The effects of the activity of the compounds of the invention were tested in vitro using cells viability assay described below.
(§3) Tested compounds were dissolved in 100% DMSO, and obtained stock solutions were serially diluted in OptiMEM medium (Reduced Serum Medium-Thermo Fisher Scientific). TF-1 cells (DSMZ no.: ACC 334) in culture medium (80% RPMI 1640+20% FBS) ad in the presence of 5 ng/mL IL-3 or 20 ng/mL IL-4 were deposited on 96-well plates in the volume of 90 μl per well, 10 thousands of cells per well. To a well of the 96-well plate 10 μL of the prepared 10× stock solutions of the compounds. Cells on 96-well plates were incubated with the compounds for 72 hours at 37° C., 5% CO2. Subsequently, viability of the cells was measured using ATPlite kit (Perkin Elmer). For this purpose, 50 μL of lysis buffer (mammalian cell lysis solution) were added to a well of the 96-well plate and the plate was incubated for 10 minutes at 25° C. in a plate thermo-shaker with orbital stirring at 600 rpm. Then to a well of the 96-well plate 50 μL of substrate (substrate solution) were added and incubated for 15 minutes at in dark, in a plate thermo-shaker with orbital stirring at 600 rpm. After incubation time, luminescence intensity in a well was measured using Victor×Light luminometer (Perkin Elmer, Inc.).
(§4) On the basis of luminescence intensity measurements in well containing tested compounds at various concentrations and in control wells EC50 values were determined. These values were determined with Graph Pad software v. 5.03, by fitting points of the curve using non-linear regression method. Each compound was tested in at least 6 repetitions (6 wells) on two 96-well plates, using at least 3 wells of each control.

[2] = molecular target: Recombinant kinase JAK1 (Homo sapiens (Human), UniProt P23458); test: In vitro JAK kinase inhibition assay (ADP-Glo), JAK1; format: biochemical; settings: 30 μM ATP, peptide IRS-1, averaged
Sequence of Recombinant kinase JAK1 (P23458 whole entry): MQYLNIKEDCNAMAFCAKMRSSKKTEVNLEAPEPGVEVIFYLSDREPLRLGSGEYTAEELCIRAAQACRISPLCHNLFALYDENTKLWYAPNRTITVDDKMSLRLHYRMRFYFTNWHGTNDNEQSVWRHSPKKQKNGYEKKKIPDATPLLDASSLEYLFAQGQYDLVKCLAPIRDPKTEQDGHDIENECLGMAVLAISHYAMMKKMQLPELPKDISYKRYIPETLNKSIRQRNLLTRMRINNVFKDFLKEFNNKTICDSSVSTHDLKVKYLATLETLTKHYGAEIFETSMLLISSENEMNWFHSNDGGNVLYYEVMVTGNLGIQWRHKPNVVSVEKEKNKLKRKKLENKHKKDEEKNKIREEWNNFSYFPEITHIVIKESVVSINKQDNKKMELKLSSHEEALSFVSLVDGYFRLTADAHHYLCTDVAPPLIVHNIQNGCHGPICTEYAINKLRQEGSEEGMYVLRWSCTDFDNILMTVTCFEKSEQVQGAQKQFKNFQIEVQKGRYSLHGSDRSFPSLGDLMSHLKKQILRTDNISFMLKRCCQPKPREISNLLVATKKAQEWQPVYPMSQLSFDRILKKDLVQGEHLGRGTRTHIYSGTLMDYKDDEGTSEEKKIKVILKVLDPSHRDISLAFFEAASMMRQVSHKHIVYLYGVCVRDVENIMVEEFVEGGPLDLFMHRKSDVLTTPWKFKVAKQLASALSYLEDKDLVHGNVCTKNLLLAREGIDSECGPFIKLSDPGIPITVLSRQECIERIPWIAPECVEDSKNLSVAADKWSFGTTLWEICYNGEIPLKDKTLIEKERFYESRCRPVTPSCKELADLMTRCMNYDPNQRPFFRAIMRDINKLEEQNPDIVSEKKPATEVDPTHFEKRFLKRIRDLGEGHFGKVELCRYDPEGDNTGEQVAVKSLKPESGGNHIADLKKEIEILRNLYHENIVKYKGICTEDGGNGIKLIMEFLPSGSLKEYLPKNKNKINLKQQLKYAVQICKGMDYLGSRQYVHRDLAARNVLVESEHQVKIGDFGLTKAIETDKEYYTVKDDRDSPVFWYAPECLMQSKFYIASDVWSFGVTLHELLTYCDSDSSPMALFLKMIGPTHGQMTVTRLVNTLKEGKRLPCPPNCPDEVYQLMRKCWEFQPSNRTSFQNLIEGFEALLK
Experimental: (§5) In Vitro JAK Kinase Inhibition Assay
(§6) The effects of the compounds of the invention were analysed in vitro using kinase JAK inhibition assay described below.
(§7) Tested compounds were dissolved in 100% DMSO, and obtained stock solutions were serially diluted in the reaction buffer (50 mM Tris pH 7.5, 10 mM MgCl2, 0.25 mM EGTA, 0.1 mM Na3VO4, 0.01% Triton X-100, 2.5 mM DTT). Recombinant kinases JAK1 (ProQinase), JAK2, or JAK3 (Carna Biosciences) were diluted in the dilution buffer (50 mM Tris-HCl pH 7.5, 150 mM NaCl, 10% glycerol, 0.05% Triton X-100, 1 mM DTT) to the final concentration 3 ng/μL (JAK1), 0.1 ng/μL (JAK2), or 0.2 ng/μL (JAK3). 5 μL of obtained solution of the compounds and 5 μL of the solution of respective kinases were added to the well of a 96-well plate. To initiate interaction between tested compounds and an enzyme, the plate was incubated for 10 minutes at 25° C. in a Plate-Thermo-Shaker with orbital stirring at 400 rpm. Wells of a negative control contained all reagents as mentioned above with the exception of tested compounds and kinase, and wells of a positive controls contained all reagents as mentioned above with the exception of tested compounds. Enzymatic reaction was initiated by the addition of 15 μL of the following solution: 5× concentrated reaction buffer (50 mM Tris pH 7.5, 10 mM MgCl2, 0.25 mM EGTA, 0.1 mM Na3VO4, 0.01% Triton X-100, 2.5 mM DTT), water, 30 μM ATP and for particular kinases: JAK1—60 μM peptide IRS-1 (Enzo), JAK2 or JAK3—10 μM peptide IGF-1Rtide (Lipopharm). Then the plate was incubated for 1 hour at 25° C. in a Plate-Thermo-Shaker, with orbital stirring at 400 rpm. Detection of ADP formed in the enzymatic reaction was then performed using ADP-Glo Kinase Assay kit (Promega). For this purpose, to the well of the 96-well plate 25 μL of ADP-Glo Reagent were added, and the plate was incubated for 40 minutes at 25° C. in a Plate-Thermo-Shaker with orbital stirring at 400 rpm. Then to the well of the 96-well plate 50 μL of Kinase Detection Reagent were added and the plate was incubated for 30 minutes at 25° C. in a Plate-Thermo-Shaker with orbital stirring at 400 rpm. After incubation, luminescence intensity was measured using Victor×Light luminometer (Perkin Elmer, Inc.).
as §4, with “luminescence measurement” for “luminescence intensity measurements”, “in wells” for “in well”, “control wells, IC50” for “control wells EC50”
(§8) Averaged results of kinases JAK inhibition activity for selected compounds of the present invention are presented below in Table 1.

[3] = test system: STAT6 protein phosphorylation in TF-1 cells; test: STAT6 phosphorylation inhibition in vitro in TF-1 cells with IL-4; format: cell-based; settings: Homo sapiens, IL-4 20 ng/mL, 1 hour, Western blot densitometry
Experimental: Assay of STAT6 Phosphorylation Inhibition In Vitro
The activity of the compounds of the invention was tested using in vitro assay described below.
Tested compounds were dissolved in 100% DMSO, and obtained stock solutions were serially in OptiMEM medium (Reduced Serum Medium-Thermo Fisher Scientific). TF-1 cells (DSMZ no.: ACC 334) in culture medium (80% RPMI 1640+20% FBS) in the presence of IL-4 at 20 ng/mL were sieved on 12-well plates at 900 μl/well, 700 thousands of cells/well. To a well of the 12-well plate 100 μL of obtained 10× solution of the compounds were added. Cells on 12-well plates were incubated with tested compounds for 1 hour at 37° C., 5% CO2. Subsequently the cells were washed with PBS, lysed in RIPA buffer added with EDTA, proteases and phosphatases inhibitors, and incubated for 5 min on ice. Protein concentration was determined using Pierce BCA Protein Assay Kit (Thermo Fisher Scientific). Protein lysates were separated by electrophoresis (SDS-PAGE) on 8% polyacrylamide gels, then wet-transferred on nitrocellulose membrane and tested proteins were detected in accordance with the instructions of antibody manufacturer.
On the basis of the measurement of chemoluminescence intensity densitometric analysis was performed, results obtained for the cells treated with tested compounds at various concentrations were compared with those obtained for control cells, and IC50 values were determined.
These values were determined with Graph Pad software v. 5.03, by fitting points of the curve using non-linear regression method. Each compound was tested in at least 3 repetitions.

[4] = molecular target: Recombinant kinase JAK3 (Homo sapiens (Human), UniProt P52333); test: In vitro JAK kinase inhibition assay (ADP-Glo), JAK3; format: biochemical; settings: 30 μM ATP, peptide IGF-1Rtide, averaged
Sequence of Recombinant kinase JAK3 (P52333 whole entry): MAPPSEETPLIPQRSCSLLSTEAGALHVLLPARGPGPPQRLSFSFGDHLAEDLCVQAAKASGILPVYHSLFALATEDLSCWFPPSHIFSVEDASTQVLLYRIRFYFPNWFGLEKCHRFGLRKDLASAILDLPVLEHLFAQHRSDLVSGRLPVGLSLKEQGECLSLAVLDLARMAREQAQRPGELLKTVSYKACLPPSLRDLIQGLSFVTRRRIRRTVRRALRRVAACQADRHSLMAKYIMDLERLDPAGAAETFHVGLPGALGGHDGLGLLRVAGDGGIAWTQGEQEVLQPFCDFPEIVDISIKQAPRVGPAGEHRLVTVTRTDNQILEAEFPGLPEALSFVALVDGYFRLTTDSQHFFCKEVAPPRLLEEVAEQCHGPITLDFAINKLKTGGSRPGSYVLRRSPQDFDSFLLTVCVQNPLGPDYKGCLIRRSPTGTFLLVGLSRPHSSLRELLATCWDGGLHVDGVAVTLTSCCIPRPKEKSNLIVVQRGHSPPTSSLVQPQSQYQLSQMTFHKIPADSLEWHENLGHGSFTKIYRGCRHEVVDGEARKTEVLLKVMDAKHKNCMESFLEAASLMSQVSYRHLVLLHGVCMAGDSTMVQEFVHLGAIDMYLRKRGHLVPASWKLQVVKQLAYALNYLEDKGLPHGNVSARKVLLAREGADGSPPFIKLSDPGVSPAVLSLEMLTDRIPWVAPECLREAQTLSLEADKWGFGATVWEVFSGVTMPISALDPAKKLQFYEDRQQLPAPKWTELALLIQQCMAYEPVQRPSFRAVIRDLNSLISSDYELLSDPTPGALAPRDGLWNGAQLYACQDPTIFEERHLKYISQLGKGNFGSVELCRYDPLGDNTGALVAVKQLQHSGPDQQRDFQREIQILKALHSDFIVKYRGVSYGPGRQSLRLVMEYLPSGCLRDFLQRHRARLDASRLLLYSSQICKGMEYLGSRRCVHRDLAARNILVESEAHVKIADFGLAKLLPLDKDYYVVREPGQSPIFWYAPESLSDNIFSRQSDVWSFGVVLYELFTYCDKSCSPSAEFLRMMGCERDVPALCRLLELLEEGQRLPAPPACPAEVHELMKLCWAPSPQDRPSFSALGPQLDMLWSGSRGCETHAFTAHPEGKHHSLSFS
Experimental: as §5, §6, §7
as §4, with “luminescence measurement” for “luminescence intensity measurements”, “in wells” for “in well”, “control wells, IC50” for “control wells EC50”
as §8

[5] = test system: TF-1 cells; test: TF-1 cells viability in vitro in the presence of IL-3 (JAK2 activation); format: cell-based; settings: Homo sapiens, 5 ng/mL IL-3, 72 hours, ATPlite, read-out: JAK2 IL3 (EC50, inhibition of viability of TF-1 cells)
Experimental: as §1, §2
as §3, with “TF-1 cells (DSMZ no.: ACC 334) in culture medium (80% RPMI 1640+20% FBS) ad in the presence of 5 ng/mL IL-3 or 20 ng/mL IL-4 were deposited on 96-well plates in the volume of 90 μl per well, 10 thousands of cells per well.” left out
as §4, with “5.03, by fitting points of the curve using non-linear regression method.” left out

## CC1(C)CN(c2ccc(C#N)nn2)CC[C@H]1Nc1c(C(N)=O)cnc2cc(-c3ccnc(N4CCOCC4)c3)nn12 [Example 13, (R)-7-((1-(6-Cyanopyridazin-3-yl)-3,3-dimethylpiperidin-4-yl)amino)-2-(2-morpholinopyridin-4-yl)pyrazolo[1,5-a]pyrimidine-6-carboxamide]
[1]
  IC50: 0.202 µM
[2]
  IC50: 0.00051 µM
[3]
  IC50: 0.215 µM
[4]
  IC50: 0.0002 µM
[5]
  IC50: 1.12 µM
